Assay results published in the NIST ThermoML archive (doi:10.1016/j.jct.2007.01.012).
± gives the expanded uncertainty stated by the source.

Details: 101.33 kPa, Liquid

Row | mass density (298.15 K) | mass density (303.15 K) | mass density (313.15 K) | Structure (SMILES)
1 | 1236.5 ± 2.9 kg/m3 | 1232.6 ± 2.9 kg/m3 | 1225.6 ± 2.8 kg/m3 | CCn1cc[n+](C)c1.COCCOCCOS(=O)(=O)[O-] [1-ethyl-3-methylimidazolium 2-(2-methoxyethoxy) ethylsulfate]
2 | 786.7 ± 1.4 kg/m3 | 782 ± 1.4 kg/m3 | 772.7 ± 1.4 kg/m3 | CO [methanol]
